Source: US20220289679A1, “HETEROCYCLIC COMPOUND” (Takeda Pharmaceutical Company Limited, priority 2019, published 2022)

Biological target: T1, human GCS (glucosylceramide synthase) (Homo sapiens, UniProt Q16739)
T1 construct: made in house; host or cells: Expi293F cells (transient expression; microsome fraction)
T1 sequence (Q16739 1-394): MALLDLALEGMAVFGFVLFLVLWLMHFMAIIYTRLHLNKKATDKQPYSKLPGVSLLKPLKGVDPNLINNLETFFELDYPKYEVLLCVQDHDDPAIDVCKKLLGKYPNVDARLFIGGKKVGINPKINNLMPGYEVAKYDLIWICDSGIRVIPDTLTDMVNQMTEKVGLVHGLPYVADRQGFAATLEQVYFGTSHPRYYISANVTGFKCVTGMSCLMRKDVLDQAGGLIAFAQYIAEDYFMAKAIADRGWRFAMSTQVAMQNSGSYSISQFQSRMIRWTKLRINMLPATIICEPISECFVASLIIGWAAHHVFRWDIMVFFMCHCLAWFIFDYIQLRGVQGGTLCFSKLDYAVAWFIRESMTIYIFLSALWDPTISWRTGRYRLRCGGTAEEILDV
Test: Glucosylceramide Synthase (GCS) Assay
Type: biochemical
Conditions: test compound 10 μM; microsome fraction of Expi293F cells expressing human GCS; 1.7 μM UDP-glucose, 3 μM C8 ceramide; room temperature 60 min; C8 glucosylceramide by Rapidfire MS/MS; read-out: GCS enzyme inhibitory rate at 10 μM (%)
Procedure: In enzyme assay, a microsome fraction obtained by transient expression by Expi293F™ cells (catalog number: A14527, Thermo Fisher Scientific) was used as a glucosylceramide synthase source. Liposomal C8 ceramide and UDP-glucose were used as substrates. For each substrate concentration, 1.7 μM UDP-glucose, which is equal to the Km value, and 3 μM C8 ceramide were used. After the enzymatic reaction, the analysis was performed with Rapidfire MS/MS (API-4000™, SCIEX), and C8 glucosylceramide was quantified to evaluate the inhibitory activity of the test compound against glucosylceramide synthase activity.
PcDNA3.3TOPO vector (catalog number: K830001, Thermo Fisher Scientific) into which the human GCS gene was inserted was introduced into Expi293F™ Cells (catalog number: A14527, Thermo Fisher Scientific) by using ExpiFectamine™ 293 Transfection Kit (catalog number: A14525, Thermo Fisher Scientific). The cultured cells were dissolved in D-PBS (catalog number: 048-29805, Fuji Film Wako Pure Chemical Industries, Ltd.) containing 1 mM PMSF, and the solution was allowed to stand on ice for 30 minutes, and then subjected to cell disruption (homogenized). The disruption solution was centrifuged at 10,000×g for 20 minutes at 4° C., and the obtained supernatant was centrifuged at 142,400×g for 60 minutes at 4° C. The obtained precipitate was resuspended in a D-PBS solution containing 1 mM PMSF, and homogenized again to prepare as a microsome fraction. Protein quantification was performed by the CBB method.
A 1 mM compound solution prepared by dissolving the test compound in DMSO was added to a 384-well plate by 100 nL so that the final concentration of the test compound was 10 μM. Next, a substrate solution consisting of 3.4 μM UDP-glucose and 6 μM C8 ceramide was added by 5 μL, followed by an enzyme solution consisting of a 25 μg/mL microsome fraction by 5 μL. C8 ceramide was prepared from liposomes composed of 15 mol % C8 ceramide and 85 mol % dioleoyl phosphatidylcholine (1,2-dioleoyl-sn-glycero-3-phosphocholine: DOPC). The enzymatic reaction was carried out in a solution consisting of 20 mM tris-hydrochloric acid buffer (pH 7.5), 0.01% Tween 20, 0.01% bovine serum albumin and 1 mM dithiothreitol at room temperature for 60 min. Then, a solution consisting of 75% isopropanol and 1% formic acid containing 0.25 μM N-Octadecanoyl-D35-psichosine (catalog number: 1914, Matreya) as an internal standard substance was added by 60 μL to stop the enzymatic reaction. 5 μL of the centrifugal supernatant of the obtained reaction product was analyzed by Rapidfire MS/MS (Agilent Technologies) using API-4000™ (SCIEX), and the C8 glucosylceramide was quantified to evaluate the inhibitory activity of the test compound against the glucosylceramide synthase activity. The inhibitory activity of the test compound was evaluated when the C8 glucosylceramide level in the enzyme-free solution was considered as 100% inhibitory and the enzyme activity of the DMSO group in the absence of the compound was considered as 0% inhibitory.

Structure (SMILES) | inhibition at 10 µM
COc1cc(F)ccc1-n1cccc(C(=O)Nc2ccn(-c3ccc(F)cc3)n2)c1=O [Example 8, 1-(4-fluoro-2-methoxyphenyl)-N-[1-(4-fluorophenyl)-1H-pyrazol-3-yl]-2-oxo-1,2-dihydropyridine-3-carboxamide] | 66%
COc1cc(F)ccc1-n1cccc(C(=O)Nc2ccc(C(F)(F)F)cc2)c1=O [Example 11, 1-(4-fluoro-2-methoxyphenyl)-2-oxo-N-[4-(trifluoromethyl)phenyl]-1,2-dihydropyridine-3-carboxamide] | 88%
O=C(Nc1ccn(-c2ccc(F)cc2)n1)c1cccn(-c2ccccc2OCC(F)(F)F)c1=O [Example 12, N-[1-(4-fluorophenyl)-1H-pyrazol-3-yl]-2-oxo-1-[2-(2,2,2-trifluoroethoxy)phenyl]-1,2-dihydropyridine-3-carboxamide] | 97%
COc1ccc(NC(=O)c2cccn(-c3ccccc3OCC(F)(F)F)c2=O)cn1 [Example 13, N-(6-methoxypyridin-3-yl)-2-oxo-1-[2-(2,2,2-trifluoroethoxy)phenyl]-1,2-dihydropyridine-3-carboxamide] | 96%
O=C(Nc1ccc(Cl)cc1)c1cccn(-c2ccccc2OCC(F)(F)F)c1=O [Example 14, N-(4-chlorophenyl)-2-oxo-1-[2-(2,2,2-trifluoroethoxy)phenyl]-1,2-dihydropyridine-3-carboxamide] | 99%
O=C(Nc1ccc(OCC(F)(F)F)nc1)c1cccn(-c2ccccc2OCC(F)(F)F)c1=O [Example 15, 2-oxo-1-[2-(2,2,2-trifluoroethoxy)phenyl]-N-[6-(2,2,2-trifluoroethoxy)pyridin-3-yl]-1,2-dihydropyridine-3-carboxamide] | 100%
COc1cc(F)ccc1-n1cccc(C(=O)Nc2ccc(OC(F)F)nc2)c1=O [Example 16, N-[6-(difluoromethoxy)pyridin-3-yl]-1-(4-fluoro-2-methoxyphenyl)-2-oxo-1,2-dihydropyridine-3-carboxamide] | 69%
O=C(Nc1ccc(Oc2ccccc2)cc1)c1cccn(-c2ccc(F)cc2N2CCOCC2)c1=O [Example 17, 1-[4-fluoro-2-(morpholin-4-yl)phenyl]-2-oxo-N-(4-phenoxyphenyl)-1,2-dihydropyridine-3-carboxamide] | 81%
COc1cc(F)ccc1-n1nccc(C(=O)Nc2ccc(Oc3ccccc3)cc2)c1=O [Example 18, 2-(4-fluoro-2-methoxyphenyl)-3-oxo-N-(4-phenoxyphenyl)-2,3-dihydropyridazine-4-carboxamide] | 76%
COc1cc(F)ccc1-n1cccc(C(=O)Nc2ccc(N3CCOCC3)cc2)c1=O [Example 19, 1-(4-fluoro-2-methoxyphenyl)-N-[4-(morpholin-4-yl)phenyl]-2-oxo-1,2-dihydropyridine-3-carboxamide] | 55%
O=C(Nc1ccc(C(F)(F)F)nc1)c1cccn(-c2ccccc2OCC(F)(F)F)c1=O [Example 20, 2-oxo-1-[2-(2,2,2-trifluoroethoxy)phenyl]-N-[6-(trifluoromethyl)pyridin-3-yl]-1,2-dihydropyridine-3-carboxamide] | 100%
O=C(Nc1ccc(C2CC2)cn1)c1cccn(-c2ccccc2OCC(F)(F)F)c1=O [Example 21, N-(5-cyclopropylpyridin-2-yl)-2-oxo-1-[2-(2,2,2-trifluoroethoxy)phenyl]-1,2-dihydropyridine-3-carboxamide] | 99%
O=C(Nc1ccn(CC(F)(F)F)n1)c1cccn(-c2ccccc2OCC(F)(F)F)c1=O [Example 22, 2-oxo-1-[2-(2,2,2-trifluoroethoxy)phenyl]-N-[1-(2,2,2-trifluoroethyl)-1H-pyrazol-3-yl]-1,2-dihydropyridine-3-carboxamide] | 77%
COc1cc(F)ccc1-n1nccc(C(=O)Nc2ccc(OCC(F)(F)F)nc2)c1=O [Example 23, 2-(4-fluoro-2-methoxyphenyl)-3-oxo-N-[6-(2,2,2-trifluoroethoxy)pyridin-3-yl]-2,3-dihydropyridazine-4-carboxamide] | 87%
N#Cc1ccc(NC(=O)c2cccn(-c3ccccc3OCC(F)(F)F)c2=O)cn1 [Example 24, N-(6-cyanopyridin-3-yl)-2-oxo-1-[2-(2,2,2-trifluoroethoxy)phenyl]-1,2-dihydropyridine-3-carboxamide] | 98%
O=C(Nc1ccc(OCC(F)(F)F)nc1)c1cccn(-c2ccc(F)cc2N2CCOCC2)c1=O [Example 25, 1-[4-fluoro-2-(morpholin-4-yl)phenyl]-2-oxo-N-[6-(2,2,2-trifluoroethoxy)pyridin-3-yl]-1,2-dihydropyridine-3-carboxamide] | 81%
O=C(Nc1ccc(OCC(F)(F)F)nc1)c1cccn(-c2ccc(F)cc2OCC(F)(F)F)c1=O [Example 26, 1-[4-fluoro-2-(2,2,2-trifluoroethoxy)phenyl]-2-oxo-N-[6-(2,2,2-trifluoroethoxy)pyridin-3-yl]-1,2-dihydropyridine-3-carboxamide] | 100%
COCCOc1cc(F)ccc1-n1cccc(C(=O)Nc2ccc(OCC(F)(F)F)nc2)c1=O [Example 27, 1-[4-fluoro-2-(2-methoxyethoxy)phenyl]-2-oxo-N-[6-(2,2,2-trifluoroethoxy)pyridin-3-yl]-1,2-dihydropyridine-3-carboxamide] | 75%
O=C(Nc1ccc(OCC(F)(F)F)nc1)c1ccnn(-c2ccc(F)cc2OCC(F)(F)F)c1=O [Example 29, 2-[4-fluoro-2-(2,2,2-trifluoroethoxy)phenyl]-3-oxo-N-[6-(2,2,2-trifluoroethoxy)pyridin-3-yl]-2,3-dihydropyridazine-4-carboxamide] | 97%
N#Cc1cc(F)ccc1-n1cccc(C(=O)Nc2ccc(Oc3ccccc3)cc2)c1=O [Example 30, 1-(2-cyano-4-fluorophenyl)-2-oxo-N-(4-phenoxyphenyl)-1,2-dihydropyridine-3-carboxamide] | 55%
N#Cc1ccc(NC(=O)c2cccn(-c3ccccc3OCC(F)(F)F)c2=O)nc1 [Example 31, N-(5-cyanopyridin-2-yl)-2-oxo-1-[2-(2,2,2-trifluoroethoxy)phenyl]-1,2-dihydropyridine-3-carboxamide] | 92%
CC(C)Cn1cc(NC(=O)c2cccn(-c3ccc(F)cc3OCC(F)(F)F)c2=O)cn1 [Example 33, 1-[4-fluoro-2-(2,2,2-trifluoroethoxy)phenyl]-N-[1-(2-methylpropyl)-1H-pyrazol-4-yl]-2-oxo-1,2-dihydropyridine-3-carboxamide] | 76%
O=C(Nc1ccc(CN2CCOCC2)cc1)c1cccn(-c2ccc(F)cc2OCC(F)(F)F)c1=O [Example 35, 1-[4-fluoro-2-(2,2,2-trifluoroethoxy)phenyl]-N-{4-[(morpholin-4-yl)methyl]phenyl}-2-oxo-1,2-dihydropyridine-3-carboxamide] | 85%
O=C(Nc1cnc(C(F)(F)F)nc1)c1cccn(-c2ccc(F)cc2OCC(F)(F)F)c1=O [Example 36, 1-[4-fluoro-2-(2,2,2-trifluoroethoxy)phenyl]-2-oxo-N-[2-(trifluoromethyl)pyrimidin-5-yl]-1,2-dihydropyridine-3-carboxamide] | 86%
O=C(Nc1cnc(C(F)(F)F)cn1)c1cccn(-c2ccc(F)cc2OCC(F)(F)F)c1=O [Example 37, 1-[4-fluoro-2-(2,2,2-trifluoroethoxy)phenyl]-2-oxo-N-[5-(trifluoromethyl)pyrazin-2-yl]-1,2-dihydropyridine-3-carboxamide] | 83%
